Measured values: patent publication US9993494B2, “Compositions and methods for treating fibrotic disease” (eFFECTOR Therapeutics, Inc., priority 2014, dated 2018)

Tested on: normal human lung fibroblasts
Assay: Ribosomal profiling: translational efficiency in TGFβ-treated fibroblasts
Format: cell-based
Conditions: TGFβ-treated fibroblasts
How it was run: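 Cells lysed on ice after a cold PBS wash containing cycloheximide. Ribosome-protected fragments and total mRNA were prepared with the ARTseq kit and sequenced by RNA-Seq. Reads were trimmed, mapped to the human genome and counted uniquely over coding regions per gene, with low-count genes excluded before differential translational-efficiency analysis.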

CC(C)n1nc(-c2cc3cc(O)ccc3[nH]2)c2c(N)ncnc21 [PP242]
+ (+ = 0.9 to 1.5): renormalizing the translational profile of EIF4B (ENSG00000063046) | renormalizing the translational profile of RPL18 (ENSG00000063177) | renormalizing the translational profile of ASPM (ENSG00000066279) | renormalizing the translational profile of RPL31 (ENSG00000071082) | renormalizing the translational profile of P2RX7 (ENSG00000089041) | renormalizing the translational profile of EIF3E (ENSG00000104408) | renormalizing the translational profile of GLTSCR2 (ENSG00000105373) | renormalizing the translational profile of RAB3D (ENSG00000105514) | renormalizing the translational profile of RPL18A (ENSG00000105640) | renormalizing the translational profile of GLCCI1 (ENSG00000106415) | renormalizing the translational profile of GAPDH (ENSG00000111640) | renormalizing the translational profile of IFIH1 (ENSG00000115267) | renormalizing the translational profile of RPL5 (ENSG00000122406)
+++ (+++ = >2.0): renormalizing the translational profile of FMO2 (ENSG00000094963)
− (− = <0.9): renormalizing the translational profile of DNASE1L1 (ENSG00000013563) | renormalizing the translational profile of ADAMTS6 (ENSG00000049192) | renormalizing the translational profile of LETMD1 (ENSG00000050426) | renormalizing the translational profile of PLEKHA5 (ENSG00000052126) | renormalizing the translational profile of HIPK2 (ENSG00000064393) | renormalizing the translational profile of RASSF1 (ENSG00000068028) | renormalizing the translational profile of PABPC1 (ENSG00000070756) | renormalizing the translational profile of PLD1 (ENSG00000075651) | renormalizing the translational profile of EDN1 (ENSG00000078401) | renormalizing the translational profile of AURKA (ENSG00000087586) | renormalizing the translational profile of EPB41L1 (ENSG00000088367) | renormalizing the translational profile of RPL6 (ENSG00000089009) | renormalizing the translational profile of RPLP0 (ENSG00000089157) | renormalizing the translational profile of IGBP1 (ENSG00000089289) | renormalizing the translational profile of IRAK3 (ENSG00000090376) | renormalizing the translational profile of PABPC4 (ENSG00000090621) | renormalizing the translational profile of ACOT7 (ENSG00000097021) | renormalizing the translational profile of ATP5D (ENSG00000099624) | renormalizing the translational profile of LGALS1 (ENSG00000100097) | renormalizing the translational profile of EIF3L (ENSG00000100129) | renormalizing the translational profile of RPL3 (ENSG00000100316) | renormalizing the translational profile of CEP192 (ENSG00000101639) | renormalizing the translational profile of AMMECR1 (ENSG00000101935) | renormalizing the translational profile of PLP2 (ENSG00000102007) | renormalizing the translational profile of EEF1D (ENSG00000104529) | renormalizing the translational profile of C19orf53 (ENSG00000104979) | renormalizing the translational profile of COMP (ENSG00000105664) | renormalizing the translational profile of CORO2A (ENSG00000106789) | renormalizing the translational profile of GDF10 (ENSG00000107623) | renormalizing the translational profile of RPL28 (ENSG00000108107) | renormalizing the translational profile of RPL19 (ENSG00000108298) | renormalizing the translational profile of RASD1 (ENSG00000108551) | renormalizing the translational profile of NAT9 (ENSG00000109065) | renormalizing the translational profile of RPL34 (ENSG00000109475) | renormalizing the translational profile of CRYAB (ENSG00000109846) | renormalizing the translational profile of C12orf57 (ENSG00000111678) | renormalizing the translational profile of MDFI (ENSG00000112559) | renormalizing the translational profile of HBEGF (ENSG00000113070) | renormalizing the translational profile of RPL24 (ENSG00000114391) | renormalizing the translational profile of EEF1B2 (ENSG00000114942) | renormalizing the translational profile of DPH5 (ENSG00000117543) | renormalizing the translational profile of PPL (ENSG00000118898) | renormalizing the translational profile of PLEKHG1 (ENSG00000120278) | renormalizing the translational profile of LIAS (ENSG00000121897) | renormalizing the translational profile of GPSM2 (ENSG00000121957) | renormalizing the translational profile of RPL21 (ENSG00000122026) | renormalizing the translational profile of INHBA (ENSG00000122641) | renormalizing the translational profile of CIT (ENSG00000122966) | renormalizing the translational profile of RPL23 (ENSG00000125691) | renormalizing the translational profile of LAMP5 (ENSG00000125869) | renormalizing the translational profile of NECAB3 (ENSG00000125967)
